Experimental data published in EP0133259A2, “Aminoalkyl-substituted benzene derivatives, process for production thereof, and pharmaceutical composition thereof” (KOWA COMPANY, LTD., priority 1983, dated 1985).
Counter-ions that a name gives are not always drawn.

Tests used:
[1] = test system: Chloroform-Induced Arrhythmia; experiment: Activity on chloroform-induced arrhythmia; type: in vivo, ICR-strain mice; conditions: 100 mg/kg orally; for Antiarrhythmic activity: Rate of onset of VF / Antiarrhythmic activity: Rate of onset of VT: 10 mice per group; for Antiarrhythmic activity: Rate of onset of VF: ventricular fibrillation after chloroform vapor; for Antiarrhythmic activity: Rate of onset of VT: ventricular tachycardia after chloroform vapor; for Antiarrhythmic activity: Duration of activity: relative to the duration time of Lidocaine (+)
Description: Activity on Chloroform-Induced Arrhythmia:-ICR-strain mice having a body weight of 20 to 30 g (10 per group) were used, and the test compound was administered orally in a dose of 100 mg/kg. The mice were put in a 1-liter beaker, and observed for 20 minutes for their symptoms or conditions. Then, they were placed in a vessel saturated with a vapor of chloroform, and the time which elapsed until the animals ceased to breathe was measured. After the stopping of the breathing, the mice were taken out from the vessel and their cardiograms were taken. The rates of onset of ventricular tachycardia (VT) and ventricular fibrillation (VF) and their conditions were observed. The duration of activity was determined by using as a standard the time during which the mice were put in the chloroform- saturated vessel. […] Lidocaine was used as a comparative drug.

blood pressure = experiment: Hypotensive action (average blood pressure via carotid cannula, conscious animals); type: in vivo, Mice
Description: Hypotensive action:- • Mice having a body weight of about 30 g (5 per group) were used. Under anaesthesia with pentobarbital, the carotid was […] from each animal. A cannula was inserted into the animal and connected to a pressure transducer. A tracheal cannula was applied, and the animal was fixed on its back. After the animals awoke from anesthesia, their average blood pressures were measured by the pressure transducer.
The drug was orally administered in a dose of 30 mg/kg, and changes in the blood pressure were measured. Physiological saline was administered to a control group.
The drug used in Test Example 2 was the compound prepared in Example 6.

SMILES	Antiarrhythmic activity: Rate of onset of VF [1]	Antiarrhythmic activity: Rate of onset of VT [1]	Antiarrhythmic activity: Duration of activity [1]	Condition ([1]; symptoms observed for 20 minutes, indicated when the same tendency was seen in all subjects)	Average blood pressure (blood pressure; 30 mg/kg orally, 10 minutes after the administration)	Average blood pressure (blood pressure; 30 mg/kg orally, 30 minutes after the administration)	Average blood pressure (blood pressure; 30 mg/kg orally, 60 minutes after the administration)	Average blood pressure (blood pressure; 30 mg/kg orally, 120 minutes after the administration)	Average blood pressure (blood pressure; before administration, 5 mice per group)
CCN(CC)CC(=O)Nc1c(C)cccc1C [Lidocaine, reference compound]	2/10	0/10	+	Weak sedation					
COc1ccc(OCC(F)(F)F)cc1NC(=O)CC(C)N (stereo not drawn) [Example 3, 3-Amino-2'-methoxy-5'-(2,2,2-trifluoroethoxy)-butyranilide-hemifumarate]	0/10	2/10	+++						
COc1ccc(OCCO[N+](=O)[O-])cc1OCC(C)N (stereo not drawn) [Example 4, 1-[2-Methoxy-5-(2-nitroxyethoxy)phenoxy]-2-propanamine.maleate]	0/10	4/10	++						
Cc1ccc(OCC(F)(F)F)cc1NC(=O)C(C)N (stereo not drawn) [Example 38, 2-Amino-2'-methyl-5'-(2,2,2-trifluoroethoxy)-propionanilide]	2/10	5/10	+						
CC(N)C(=O)Nc1cc(OCCO[N+](=O)[O-])ccc1F (stereo not drawn) [Example 24, 2-Amino-2'-fluoro-5'-(2-nitroxyethoxy)propionanilide]	0/10	2/10	+						
Cc1cc(OCC(F)(F)F)cc(C)c1NC(=O)C(C)N (stereo not drawn) [Example 41, 2-Amino-2',6^1-dimethyl-4^1-(2,2,2-trifluoroethoxy)propionanilide·hydrochloride]	1/10	0/10	+++						
Cc1ccc(OCC(F)(F)F)cc1NC(=O)CC(C)N (stereo not drawn) [Example 40, 3-Amino-2'-methyl-5'-(2,2,2-trifluoroethoxy)-butyranilide·hydrochloride]	0/10	0/10	+++						
Cc1ccc(OCCO[N+](=O)[O-])cc1NC(=O)CC(C)N (stereo not drawn) [Example 22, 3-Amino-2'-methyl-5'-(2-nitroxyethoxy)butyr.- anilide-hydrochloride]	0/10	0/10	++						
Cc1cc(OCCO[N+](=O)[O-])cc(C)c1NC(=O)C(C)N (stereo not drawn) [Example 6, 2-Amino-2',6'-dimethyl-4'-(2-nitroxyethoxy)-propionanilide·hydrochloride]	0/10	1/10	++		73.3 ±8.5 (*) mmHg	76.4 ±7.8 (*) mmHg	77.4 ±8.1 (*) mmHg	80.3 ±8.0 (**) mmHg	86.3 ±6.8 mmHg
